Laboratory results: patent publication US6914064B2, “1,4-Disubstituted piperazine derivatives useful as uro-selective α1-adrenoceptor blockers” (Ranbaxy Laboratories Limited, priority 2000, dated 2005)
Structures can show the parent of a compound that is named as a salt. Where two headings read alike, the source gives them in different places.

Assays:
α1B adrenoceptor = target: T1, α1B adrenoceptor (Rattus norvegicus, UniProt P15823); assay: Receptor binding assay, displacement of [3H]prazosin, rat liver membranes
T1 construct: from tissue; host or cells: rat liver membranes
T1 sequence (P15823 1-515): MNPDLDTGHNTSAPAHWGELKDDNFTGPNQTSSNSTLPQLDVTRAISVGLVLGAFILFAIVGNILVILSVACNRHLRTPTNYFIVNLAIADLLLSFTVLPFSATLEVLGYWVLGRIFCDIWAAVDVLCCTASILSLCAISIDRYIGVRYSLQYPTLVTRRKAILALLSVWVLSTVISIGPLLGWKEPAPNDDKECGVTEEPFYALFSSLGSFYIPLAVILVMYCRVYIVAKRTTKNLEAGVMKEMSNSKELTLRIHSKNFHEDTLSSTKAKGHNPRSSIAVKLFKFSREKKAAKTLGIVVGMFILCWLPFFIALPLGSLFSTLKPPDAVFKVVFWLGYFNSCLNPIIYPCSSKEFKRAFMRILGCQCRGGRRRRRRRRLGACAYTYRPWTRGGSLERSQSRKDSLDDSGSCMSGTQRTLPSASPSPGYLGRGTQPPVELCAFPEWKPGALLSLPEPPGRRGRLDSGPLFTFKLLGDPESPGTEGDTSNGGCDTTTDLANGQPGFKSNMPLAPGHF
Procedure: Receptor binding assays were performed using native α-adrenoceptors. The affinity of different compounds for α1A and α1B adrenoceptor subtypes was evaluated by studying their ability to displace specific [^3H]prazosin binding from the membranes of rat submaxillary and liver respectively (Michel et al, Br J Pharmacol, 98, 883-889 (1989)). The binding assays were performed according to U'Prichard et al. (Eur J Pharmacol, 50:87-89 (1978)) with minor modifications.
(§1) Submaxillary glands were isolated immediately after sacrifice. The liver was perfused with buffer (Tris HCl 50 mM, NaCl 100 mM, 10 mM EDTA pH 7.4). The tissues were homogenised in 10 volumes of buffer (Tris HCl 50 mM, NaCl 100 mM, EDTA 10 mM, pH 7.4). The homogenate was filtered through two layers of wet gauze and filtrate was centrifuged at 500 g for 10 min. The supernatant was subsequently centrifuged at 40,000 g for 45 min. The pellet thus obtained was resuspended in the same volume of assay buffer (Tris HCl 50 mM, EDTA 5 mM, pH 7.4) and were stored at −70° C. until the time of assay.
(§2) The membrane homogenates (150-250 μg protein) were incubated in 250 μl of assay buffer (Tris HCl 50 mM, EDTA 5 mM, pH 7.4) at 24-25° C. for 1 h. Non-specific binding was determined in the presence of 300 nM prazosin. The incubation was terminated by vacuum filtration over GF/B fibre filters. The filters were then washed with ice cold 50 mM Tris HCl buffer (pH 7.4). The filtermats were dried and bound radioactivity retained on filters was counted.The IC50 & Kd were estimated by using the non-linear curve fitting program using G Pad Prism software. The value of inhibition constant Ki was calculated from competitive binding studies by using Cheng & Prusoff equation (Cheng & Prusoff, Biochem Pharmacol, 1973,22: 3099-3108), Ki=IC50/(1+L/Kd) where L is the concentration of [^3H]prazosin used in the particular experiment (Table I).

α1A adrenoceptor = target: T2, α1A adrenoceptor (Rattus norvegicus, UniProt P43140); assay: Receptor binding assay, displacement of [3H]prazosin, rat submaxillary membranes; conditions: for Selectivity α1B/α1A: ratio of Ki α1B (rat liver) / α1A (rat submaxillary)
T2 construct: from tissue; host or cells: rat submaxillary gland membranes
T2 sequence (P43140 1-466): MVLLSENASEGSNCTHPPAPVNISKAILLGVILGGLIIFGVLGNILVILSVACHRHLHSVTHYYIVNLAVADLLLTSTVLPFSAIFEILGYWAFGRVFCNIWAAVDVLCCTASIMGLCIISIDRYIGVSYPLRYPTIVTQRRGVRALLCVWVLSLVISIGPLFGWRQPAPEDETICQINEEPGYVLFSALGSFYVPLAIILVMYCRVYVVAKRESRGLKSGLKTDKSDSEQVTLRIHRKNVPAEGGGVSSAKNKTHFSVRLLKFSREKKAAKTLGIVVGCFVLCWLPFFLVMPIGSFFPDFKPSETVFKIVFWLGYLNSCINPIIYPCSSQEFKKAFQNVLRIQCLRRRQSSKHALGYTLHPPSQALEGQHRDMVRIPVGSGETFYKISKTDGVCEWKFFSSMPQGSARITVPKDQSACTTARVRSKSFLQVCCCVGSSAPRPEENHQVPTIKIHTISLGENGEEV
Procedure: Receptor binding assays were performed using native α-adrenoceptors.
as §1
as §2, with “software.” for “software. The value of inhibition constant Ki was calculated from competitive binding studies by using Cheng & Prusoff equation (Cheng & Prusoff, Biochem Pharmacol, 1973,22: 3099-3108), Ki=IC50/(1+L/Kd) where L is the concentration of [^3H]prazosin used in the particular experiment (Table I).”

[1] = [3H]prazosin displacement, rat liver membranes, read-out: α1B (Rat liver) Ki
[2] = [3H]prazosin displacement, rat submaxillary membranes, read-out: α1A (Rat submaxillary) Ki

SMILES | melting point [°C] | Ki (α1B adrenoceptor; [1]) [nM] | Ki (α1A adrenoceptor; [2]) [nM] | Selectivity α1B/α1A (α1A adrenoceptor) | Ki (α1B adrenoceptor) [nM] | Ki (α1A adrenoceptor) [nM]
Cc1ccccc1N1CCN(CCCN2C(=O)[C@H]3CC=CC[C@H]3C2=O)CC1 (as salt: hydrochloride) [Compound 03, 2-[3-{4-(2-Methylphenyl)piperazin-1-yl}propyl]-3a,4,7,7a-tetrahydro-1H-isoindole-1,3(2H)-dione hydrochlolide] | 186 to 187 |  |  |  |  | 
O=C1[C@H]2CC=CC[C@H]2C(=O)N1CCCN1CCN(C(c2ccc(F)cc2)c2ccc(F)cc2)CC1 (as salt: hydrochloride) [Compound 19, 2-[3-{4-(Bis-4-fluorophenyl)methylpiperazin-1-yl}propyl]-3a,4,7,7a-tetrahydro-1H-isoindole-1,3(2H)-dione hydrochloride] | 235 to 236 |  |  |  |  | 
Cl.O=C1C2CC=CCC2C(=O)N1CCCN1CCN(c2cccc(Cl)c2)CC1 (stereo not drawn) [Compound 02, 2-[3-{4-(3-Chlorophenyl)piperazin-1-yl}propyl]-3a,4,7,7a-tetrahydro-1H-isoindole-1,3(2H)-dione hydrochloride] | 221 to 223 | 398 | 83 | 4.8 |  | 
Cc1ccccc1N1CCN(CCCN2C(=O)[C@H]3CC=CC[C@H]3C2=O)CC1 [Compound 03, 2-[3-{4-(2-Methylphenyl)piperazin-1-yl}propyl]-3a,4,7,7a-tetrahydro-1H-isoindole-1,3(2H)-dione hydrochlolide] |  | 168 | 32.5 | 5 |  | 
Cl.O=C1C2CC=CCC2C(=O)N1CCCN1CCN(c2ccc(F)cc2)CC1 (stereo not drawn) [Compound 04, 2-[3-{4-(4-Fluorophenyl)piperazin-1-yl}propyl]-3a,4,7,7a-tetrahydro-1H-isoindole-1,3(2H)-dione hydrochloride] | 228 to 230 | 363 | 80 | 4.5 |  | 
Cl.O=C1C2CC=CCC2C(=O)N1CCCN1CCN(c2cccc(C(F)(F)F)c2)CC1 (stereo not drawn) [Compound 05, 2-[3-{4-(3-Trifluoromethylphenyl)piperazin-1-yl}propyl]-3a,4,7,7a-tetrahydro-1H-isoindole-1,3(2H)-dione hydrochloride] | 215 to 217 |  |  | 2 | > 500 | 259
Cl.O=C1C2CC=CCC2C(=O)N1CCCN1CCN(c2ccccc2F)CC1 (stereo not drawn) [Compound 06, 2-[3-{4-(2-Fluorophenyl)piperazin-1-yl}propyl]-3a,4,7,7a-tetrahydro-1H-isoindole-1,3(2H)-dione hydrochloride] | 203 to 204 | 469 | 36 | 13 |  | 
Cc1ccc(N2CCN(CCCN3C(=O)C4CC=CCC4C3=O)CC2)cc1C.Cl (stereo not drawn) [Compound 07, 2-[3-{4-(3,4-Dimethylphenyl)piperazin-1-yl}propyl]-3a,4,7,7a-tetrahydro-1H-isoindole-1,3(2H)-dione hydrochloride] | 194 to 196 | > 500 | 183 | 2.7 |  | 
Cl.O=C1C2CC=CCC2C(=O)N1CCCN1CCN(c2ccc(F)cc2F)CC1 (stereo not drawn) [Compound 10, 2-[3-{4-(2,4-Difluorophenyl)piperazin-1-yl}propyl]-3a,4,7,7a-tetrahydro-1H-isoindole-1,3(2H)-dione hydrochloride] | 218.2 to 219 | 165 | 62 | 2.7 |  | 
Cc1ccc(Cl)cc1N1CCN(CCCN2C(=O)C3CC=CCC3C2=O)CC1.Cl (stereo not drawn) [Compound 12, 2-[3-{4-(2-Methyl-5-chlorophenyl)piperazin-1-yl}propyl]-3a,4,7,7a-tetrahydro-1H-isoindole-1,3(2H)-dione hydrochloride] | 231 to 232 | 51.3 | 8.66 | 5.9 |  | 
Cl.O=C1C2CC=CCC2C(=O)N1CCCN1CCN(Cc2ccccc2)CC1 (stereo not drawn) [Compound 14, 2-[3-{4-(Benzyl)piperazin-1-yl}propyl]-3a,4,7,7a-tetrahydro-1H-isoindole-1,3(2H)-dione hydrochloride] | 275 to 278 | > 500 | > 500 | 1 |  | 
Cl.O=C1C2CC=CCC2C(=O)N1CCCN1CCN(CC=Cc2ccccc2)CC1 (stereo not drawn) [Compound 15, 2-[3-{4-(Cinnamyl)piperazin-1-yl}propyl]-3a,4,7,7a-tetrahydro-1H-isoindole-1,3(2H)-dione hydrochloride] | 263 to 265 | > 500 | > 500 | 1 |  | 
Cl.O=C1C2CC=CCC2C(=O)N1CCCN1CCN(c2ccc([N+](=O)[O-])cc2)CC1 (stereo not drawn) [Compound 16, 2-[3-{4-(4-Nitrophenyl)piperazin-1-yl}propyl]-3a,4,7,7a-tetrahydro-1H-isoindole-1,3(2H)-dione hydrochloride] | 259.5 to 261 | > 500 | > 500 | 1 |  | 
Cc1ccc(N2CCN(CCCN3C(=O)C4CC=CCC4C3=O)CC2)cc1Cl.Cl (stereo not drawn) [Compound 17, 2-[3-{4-(3-Chloro-4-methylphenyl)piperazin-1-yl}propyl]-3a,4,7,7a-tetrahydro-1H-isoindole-1,3(2H)-dione hydrochloride] | 248 to 249 | 37 | 48 | 0.78 |  | 
COc1cc(F)ccc1N1CCN(CCCN2C(=O)C3CC=CCC3C2=O)CC1.Cl (stereo not drawn) [Compound 18, 2-[3-{4-(4-Fluoro-2-methoxyphenyl)piperazin-1-yl}propyl]-3a,4,7,7a-tetrahydro-1H-isoindole-1,3(2H)-dione hydrochloride] | 232 to 233 | 271 | 10 | 27 |  | 
O=C1[C@H]2CC=CC[C@H]2C(=O)N1CCCN1CCN(C(c2ccc(F)cc2)c2ccc(F)cc2)CC1 [Compound 19, 2-[3-{4-(Bis-4-fluorophenyl)methylpiperazin-1-yl}propyl]-3a,4,7,7a-tetrahydro-1H-isoindole-1,3(2H)-dione hydrochloride] |  | 81 | 5.26 | 15 |  | 
Cl.O=C1C2CC=CCC2C(=O)N1CCCN1CCN(c2ccc(Cl)cc2Cl)CC1 (stereo not drawn) [Compound 20, 2-[3-{4-(2,4-Dichlorophenyl)piperazin-1-yl}propyl]-3a,4,7,7a-tetrahydro-1H-isoindole-1,3(2H)-dione hydrochloride] | 210 to 211 | > 500 | 46.8 | 11 |  | 
